Laboratory results from PMC11944037, “Investigating the Mechanism of Action of Ipomoea pes-caprae in the Treatment of Rheumatoid Arthritis Based on Serum Metabolomics and Network Pharmacology” (Marine Drugs, 2025).
Like-named read-outs stand apart in the source and are kept apart here.

Columns and labels:
[1] = Identification and relative content of absorbed components of IPE in plasma (UPLC-MS); type: in vivo, SD rats; conditions: oral IPE 13.5 g/kg, peak area normalization
Text: A total of 83 male SD rats, SPF grade, six weeks old, body mass (200 ± 10 g), were purchased from Hunan SJA Laboratory Animal Co., Ltd. (Haodan Science and Technology Park, No.99 Changchong Road, Longping High-tech Park, Furong District, Changsha City, China), Animal License No. SCXK (Hunan) 2019-0004. The animal experiments were approved by the Animal Ethics Committee of Guangxi University of Chinese Medicine (Approval No. DW20220220-117). After one week of adaptive feeding, the animals were randomly divided into eight groups of 10 animals according to weight stratification: normal control group (Con), natural bovine type II collagen model group (CII), wind-dampness cold bi-syndrome model group (WCM), wind-dampness heat bi-syndrome model group (WHM), wind-dampness cold bi-syndrome + Ipomoea pes-caprae group (WCM + IPE), wind-dampness heat bi-syndrome + Ipomoea pes-caprae group (WHM + IPE), wind-dampness cold bi-syndrome + Duhuo group (WCM + DH) (Duhuo formula granules), and wind-dampness heat bi-syndrome + Fangji group (WHM + FJ) (Fangji formula granules). Another three rats were randomly selected as the normal administration group (Con + IPE), and the absorbed components in plasma were studied in vivo. The oral dose of IPE was 13.5 g/kg, and the dosing volume was 20 mL/kg. The oral doses of Duhuo formula granules and Fangji formula granules were 9.0 g/kg, with a dosing volume of 20 mL/kg for each. The blank control group and each model group were administered an equal volume of distilled water by oral gavage. The administration was performed once daily for 28 consecutive days.
Rats were fasted for 12 h before administration but not deprived of water, then weighed and administered. A total of 0.2 mL of blood was collected from the orbit at 5 min, 30 min, 45 min, 1 h, 2 h, 4 h, 6 h, 8 h, and 12 h after the end of gavage administration and placed in a centrifuge tube with a preservative anticoagulant (1.5% EDTA aqueous solution, 1.5 mL). The samples were centrifuged at 4 °C for 10 min at 4000 rpm to separate the plasma. The supernatant was transferred to a new centrifuge tube and stored in a refrigerator at −80 °C for the detection of absorbed components in plasma and pharmacokinetics. In addition, after the end of the entire experimental cycle, blood was taken from the abdominal aorta of the rat. The blood samples were kept at room temperature for 2 h, then centrifuged at 4 °C at 3000 rpm for 10 min, and the upper serum was aspirated. The samples were stored at −80 °C in a low-temperature refrigerator for TNF-α, IL-6 detection, and metabolomics detection.
Ultra-high liquid chromatograph (model: ExionLC AC, manufacturer: SCIEX Corporation, USA) and QTOF mass spectrometer (model: X500R, manufacturer: SCIEX Corporation, USA), Waters ACQUITY UPLC HSS T3 C18 column (1.8 μm, 2.1 × 100 mm) was used as the mobile phase for the separation of 0.1% formic acid aqueous solution (A)-acetonitrile (B) as a mobile phase, gradient elution (0~30 min, 5%~95% B); volume flow rate of 0.4 mL/min; injection volume: 3 μL, column temperature: 40 °C. Ion source: dual-spray TurboV, positive and negative ion scanning, TOF MS scanning range of m/z 100~1500, positive/negative ion source voltage of […], ion source temperature: 600 °C, GS1: 55 psi, GS2: 55 psi, air curtain gas pressure: 35 psi, parent ion collision energy: ±10 V, de-cluster voltage (DP): ±80 V, daughter ion collision energy (CE): ±35 V.
Expressed as mean ± standard deviation ( x¯ ± s) and processed by GraphPad Prism 8.4.3 statistical software, statistical comparisons were evaluated by one-way ANOVA, followed by the Student–Newman–Keuls post hoc test. The difference was statistically significant with p < 0.05 and p < 0.01. […]

[2] = Pharmacokinetics of absorbed components of IPE in plasma; type: in vivo, SD rats; conditions: component of orally given IPE, n = 6; for MRT last: read-out: MRT0~t
Text: (Haodan Science and Technology Park, No.99 Changchong Road, Longping High-tech Park, Furong District, Changsha City, China), Animal License No. SCXK (Hunan) 2019-0004. The animal experiments were approved by the Animal Ethics Committee of Guangxi University of Chinese Medicine (Approval No. DW20220220-117). After one week of adaptive feeding, the animals were randomly divided into eight groups of 10 animals according to weight stratification: normal control group (Con), natural bovine type II collagen model group (CII), wind-dampness cold bi-syndrome model group (WCM), wind-dampness heat bi-syndrome model group (WHM), wind-dampness cold bi-syndrome + Ipomoea […] group ([…]), wind-dampness heat bi-syndrome + Ipomoea […] group ([…]), wind-dampness cold bi-syndrome + Duhuo group (WCM + DH) (Duhuo formula granules), and wind-dampness heat bi-syndrome + Fangji group (WHM + FJ) (Fangji formula granules). […] The oral dose of IPE was 13.5 g/kg, and the dosing volume was 20 mL/kg. The oral doses of Duhuo formula granules and Fangji formula granules were 9.0 g/kg, with a dosing volume of 20 mL/kg for each. The blank control group and each model group were administered an equal volume of distilled water by oral gavage. […] The supernatant was transferred to a new centrifuge tube and stored in a refrigerator at -80 °C for the detection of absorbed components in plasma and pharmacokinetics. In addition, after the end of the entire experimental cycle, blood was taken from the abdominal aorta of the rat. The blood samples were kept at room temperature for 2 h, then centrifuged at 4 °C at 3000 rpm for 10 min, and the upper serum was aspirated. The samples were stored at -80 °C in a low-temperature refrigerator for TNF-α, IL-6 detection, and metabolomics detection. In order to further elaborate on the in vivo pharmacokinetic characteristics of IPE, this study selected caffeic acid, protocatechuic acid, and ferulic acid as the research objects to explore their in vivo absorption and metabolism characteristics. In addition, syringic acid was chosen as the internal standard. […] Use A as 0.1% acetic acid aqueous solution (A) acetonitrile (B) as the mobile phase, with gradient elution (0-6 min, 5-20% B; 6-10 min, 20-40% B), a volume flow of 0.4 mL/min, a column temperature of 40 °C, and an injection volume of 3 μL. Ion source: electrospray ion source (ESI), negative ion mode collection, simultaneous measurement by multiple reaction monitoring (MRM) mode.

RA-FLS = test system: RA-FLS; set-up: method as in PMID 28463788; conditions: by blocking phosphorylation of IκB and IκB kinases; cited from earlier work
LTB4 = test system: LTB4; set-up: method as in PMID 27826169; conditions: cited from earlier work
JAK/STAT pathway = conditions: modulating CRP, RF, TNF-α, TGF-β levels; cited from earlier work
[3] = test system: NF-κB and Akt/mTOR signaling pathways; set-up: method as in PMID 32510258; conditions: cited from earlier work
[4] = test system: tyrosine kinases on fibroblast-like synoviocytes (FLS); conditions: cited from earlier work
[5] = male, SD, rat, plasma, po, 13.5 g/kg, Con + IPE group
[6] = male, SD, rat, plasma, po, 13.5 g/kg, Con + IPE group, read-out: Tmax
[7] = male, SD, rat, plasma, po, 13.5 g/kg, WCM + IPE group
[8] = male, SD, rat, plasma, po, 13.5 g/kg, WCM + IPE group, read-out: Tmax
[9] = male, SD, rat, plasma, po, 13.5 g/kg, WHM + IPE group
[10] = male, SD, rat, plasma, po, 13.5 g/kg, WHM + IPE group, read-out: Tmax

O=C(O)/C=C/c1ccc(O)c(O)c1 [Caffeic acid]
Relative Content of absorbed component in plasma ([1]; Con + IPE group (normal rats)): 33.04%
Relative Content of absorbed component in plasma ([1]; WCM + IPE group): 30.2%
Relative Content of absorbed component in plasma ([1]; WHM + IPE group): 34.24%
AUC(0-t) [2, 5]: 2080 ± 349 ng·h/mL
Cmax [2, 5]: 703 ± 190 ng/mL
half-life [2, 5]: 4.51 ± 3.03 h
MRT last [2, 5]: 4.18 ± 1.82 h
Tmax [2, 6]: 0.85 ± 0.22 h
AUC(0-t) [2, 7]: 1130 ± 163 ng·h/mL
Cmax [2, 7]: 342 ± 123 ng/mL
half-life [2, 7]: 2.82 ± 1.07 h
MRT last [2, 7]: 3.32 ± 0.35 h
Tmax [2, 8]: 0.62 ± 0.14 h
AUC(0-t) [2, 9]: 2300 ± 410 ng·h/mL
Cmax [2, 9]: 709 ± 194 ng/mL
half-life [2, 9]: 3.82 ± 2.55 h
MRT last [2, 9]: 4.53 ± 1.34 h
Tmax [2, 10]: 0.93 ± 0.12 h
IL-6 and TNF-α, inflammatory response in RA-FLS (RA-FLS): inhibits IL-6 and TNF-α

O=c1ccc2ccccc2o1 [Coumarin]
Relative Content of absorbed component in plasma ([1]; WCM + IPE group): 1.77%

O=c1ccc2cc(O)c(O)cc2o1 [Esculetine]
LTB4 levels (LTB4): decreasing LTB4 levels
Relative Content of absorbed component in plasma ([1]; Con + IPE group (normal rats)): 0.39%
Relative Content of absorbed component in plasma ([1]; WCM + IPE group): 0.5%
Relative Content of absorbed component in plasma ([1]; WHM + IPE group): 0.58%

COc1cc(/C=C/C(=O)O)ccc1O [Ferulic acid]
JAK/STAT pathway-mediated RA (JAK/STAT pathway): inhibits JAK/STAT pathway-mediated RA
Relative Content of absorbed component in plasma ([1]; Con + IPE group (normal rats)): 17.23%
Relative Content of absorbed component in plasma ([1]; WCM + IPE group): 20.09%
Relative Content of absorbed component in plasma ([1]; WHM + IPE group): 17.71%
Tmax ([2]; WCM + IPE group): 0.33 ± 0.12 h
AUC(0-t) [2, 5]: 60.6 ± 27.3 ng·h/mL
Cmax [2, 5]: 35.8 ± 10.9 ng/mL
half-life [2, 5]: 1.51 ± 0.51 h
MRT last [2, 5]: 1.3 ± 0.28 h
Tmax [2, 6]: 0.45 ± 0.1 h
AUC(0-t) [2, 7]: 34.9 ± 22.6 ng·h/mL
Cmax [2, 7]: 26.1 ± 11.6 ng/mL
half-life [2, 7]: 1.02 ± 0.46 h
MRT last [2, 7]: 1.05 ± 0.35 h
AUC(0-t) [2, 9]: 104 ± 41.2 ng·h/mL
Cmax [2, 9]: 38.8 ± 16.2 ng/mL
half-life [2, 9]: 1.31 ± 0.32 h
MRT last [2, 9]: 2.27 ± 0.42 h
Tmax [2, 10]: 0.7 ± 0.27 h

COc1cc2oc(=O)ccc2cc1O [Isoscopoletin]
Relative Content of absorbed component in plasma ([1]; Con + IPE group (normal rats)): 2.7%
Relative Content of absorbed component in plasma ([1]; WCM + IPE group): 7.8%
Relative Content of absorbed component in plasma ([1]; WHM + IPE group): 5%

COC(=O)/C=C/c1ccc(O)c(O)c1 [Methyl caffeate acid]
Relative Content of absorbed component in plasma ([1]; Con + IPE group (normal rats)): 1.57%
Relative Content of absorbed component in plasma ([1]; WCM + IPE group): 2.45%
Relative Content of absorbed component in plasma ([1]; WHM + IPE group): 2.02%

O=C(O)c1ccc(O)c(O)c1 [Protocatechuic acid]
Relative Content of absorbed component in plasma ([1]; Con + IPE group (normal rats)): 1.04%
Relative Content of absorbed component in plasma ([1]; WCM + IPE group): 1.14%
Relative Content of absorbed component in plasma ([1]; WHM + IPE group): 0.84%
AUC(0-t) [2, 5]: 504 ± 177 ng·h/mL
Cmax [2, 5]: 269 ± 90.2 ng/mL
half-life [2, 5]: 1.93 ± 1.01 h
MRT last [2, 5]: 1.9 ± 0.42 h
Tmax [2, 6]: 0.66 ± 0.25 h
AUC(0-t) [2, 7]: 194 ± 100 ng·h/mL
Cmax [2, 7]: 121 ± 77.4 ng/mL
half-life [2, 7]: 1.46 ± 0.32 h
MRT last [2, 7]: 1.59 ± 0.38 h
Tmax [2, 8]: 0.41 ± 0.12 h
AUC(0-t) [2, 9]: 307 ± 98.3 ng·h/mL
Cmax [2, 9]: 145 ± 53.2 ng/mL
half-life [2, 9]: 1.25 ± 0.36 h
MRT last [2, 9]: 1.83 ± 0.24 h
Tmax [2, 10]: 0.62 ± 0.14 h
secretion of MMP-3, MMP-13, TNF-α, IL-1β, and IL-6 [3]: inhibits the secretion

O=Cc1ccc(O)c(O)c1 [Protocatechuic aldehyde]
Relative Content of absorbed component in plasma ([1]; WCM + IPE group): 1.68%

COc1cc2ccc(=O)oc2cc1O [Scopoletin]
NF-κB signaling in fibroblast-like synoviocytes [4]: block NF-κB signaling
Relative Content of absorbed component in plasma ([1]; Con + IPE group (normal rats)): 5.83%
Relative Content of absorbed component in plasma ([1]; WCM + IPE group): 4.71%
Relative Content of absorbed component in plasma ([1]; WHM + IPE group): 5.56%

O=C(O)c1ccc(O)cc1 [p-Hydroxybenzoic acid]
Relative Content of absorbed component in plasma ([1]; Con + IPE group (normal rats)): 38.2%
Relative Content of absorbed component in plasma ([1]; WCM + IPE group): 29.65%
Relative Content of absorbed component in plasma ([1]; WHM + IPE group): 34.04%
